Measurements published in patent US9738684B2, “N-terminally modified linear and branched polyamine conjugated peptidomimetics as antimicrobials agents” (COUNCIL OF SCIENTIFIC & INDUSTRIAL RESEARCH, priority 2015, dated 2017).
Converted amounts (≈) assume the structure as drawn.

Assays:
[1] = tested on: Escherichia coli (ATCC 11775); test: MIC, serial broth dilution; assay type: cell-based; set-up: MIC E. coli. (ATCC 11775): unit not given here; conditions: MHB, 18 h, 37° C.
Experimental: (§1) The peptidomimetics designed in present invention were evaluated as antibacterial therapeutics against a broad range of bacterial strains by broth microdilution method. The antibacterial activity of the peptidomimetics was reported in terms of the minimum inhibitory concentrations (MIC).
(§2) Following bacterial strains were used in this study: S. aureus (ATCC 29213), methicillin resistant S. aureus (ATCC 33591), Staphylococcus epidermidis (ATCC 12228), methicillin resistant Staphylococcus epidermidis(ATCC 51625), Enterococcus faecalis (ATCC 7080), Escherichia coli (ATCC 11775), and Acinetobacter baumannii (ATCC 19606). Antibacterial activity was evaluated using a modified serial broth dilution method in accordance with Clinical Laboratory Standard Institute guidelines [Methods for dilution antimicrobial susceptibility tests for bacteria that grow aerobically-7th ed. Approved standard M7-A7. Clinical and Laboratory Standards Institute, Wayne, Pa., Biochim. Biophys. Acta 1798:1864-1875, 2010.]. Briefly, the inoculums were prepared from mid-log phase bacterial cultures. Peptidomimetics were incubated with bacterial suspension in Muller Hinton broth media (10^5 CFU/mL) in 96 well microtitre plate. The plates were incubated overnight with agitation (200 rpm) at 37° C. After 18 h, absorbance was measured at 630 nm. Cultures without test peptidomimetics were used as positive control. Un-inoculated Mueller Hinton Broth (MHB) was used as negative control. Tests were carried out in duplicate on at least three different days. […] For comparison standard peptide antibiotics vancomycin (VAN) and polymyxin B (PMB) were also assayed under identical conditions (Table 2). […] Further, antibacterial activity of active peptidomimetics 1c and 1d were also evaluated against MRSA in presence of 25% v/v human serum as well as bovine serum.

[2] = tested on: human red blood cells (hRBC); test: Hemolytic activity; assay type: cell-based; conditions: 250 μg/mL, 1 h at 37° C.
Experimental: Hemolytic activity of the peptidomimetics was evaluated on human red blood cells (hRBC) as described previously with minor modifications [FEBS J, 273:4040-4054, 2006; Biochim Biophys Acta., 1798:1864-1875, 2010]. Briefly, 100 μL of fresh hRBC suspension 4% v/v in NaCl/Pi (35 mM phosphate buffer, 150 mM NaCl, pH 7.2) was placed in a 96-well plate. After incubation of the peptidomimetics (100 μL) in the hRBC suspension for 1 h at 37° C., the plates were centrifuged and supernatant (100 μL) was transferred to fresh 96-well plate. Absorbance was read at 540 nm using ELISA plate reader (Molecular Devices). Percent hemolysis was calculated using the following formula: % hemolysis=100[(A−A0)/(At−A0)]
Where, A represents absorbance of sample wells at 540 nm. Also A0 and At represents 0% and 100% hemolysis determined in NaCl/Pi and 1% Triton X-100, respectively (Table 2). […] Peptidomimetics 1e and 1f caused 31% and 30% hemolysis at 250 μg/mL. Peptidomimetics 2d, 2e and 2f caused significant hemolysis with 83%, 96% and 88% damage to hRBCs at […] respectively.

[3] = tested on: methicillin resistant Staphylococcus epidermidis (ATCC 51625); test: MIC, serial broth dilution; assay type: cell-based; conditions: MHB, 18 h, 37° C.
Experimental: as §1, §2

[4] = tested on: Enterococcus faecalis (ATCC 7080); test: MIC, serial broth dilution; assay type: cell-based; conditions: MHB, 18 h, 37° C.
Experimental: as §1, §2

[5] = tested on: Staphylococcus epidermidis (ATCC 12228); test: MIC, serial broth dilution; assay type: cell-based; conditions: MHB, 18 h, 37° C.
Experimental: as §1, §2

[6] = tested on: methicillin resistant S. aureus (ATCC 33591); test: MIC, serial broth dilution; assay type: cell-based, Staphylococcus aureus; conditions: MHB, 18 h, 37° C.
Experimental: as §1, §2

[7] = tested on: S. aureus (ATCC 29213); test: MIC, serial broth dilution; assay type: cell-based, Staphylococcus aureus; conditions: MHB, 18 h, 37° C.
Experimental: as §1, §2

[8] = tested on: MRSA; test: Membrane depolarization with DiSC3(5) dye; assay type: cell-based, Staphylococcus aureus; conditions: up to the highest concentration tested
Experimental: For determination of membrane depolarizing ability of designed peptidomimetics, a membrane potential sensitive dye DiSC3(5) was used as described previously with minor modifications [Org Biomol. Chem. 10: 8326-8335, 2012; J. Am. Chem. Soc., 132: 18417-18428, 2010.]. Briefly, overnight grown MRSA was sub cultured into MHB for 2-3 h at 37° C. to obtain mid-log phase cultures. The cells were centrifuged at 4000 rpm for 10 min at 25° C., washed, and re-suspended into respiration buffer (5 mM HEPES, 20 mM glucose, pH 7.4) to obtain a diluted suspension of OD600˜0.05. Then DiSC3(5) [0.18 μM in DMSO], was added to 500 μL aliquotes of the re-suspended cells and allowed to stabilize for 1 h. Baseline fluorescence was acquired using a Edinburg F900 spectrofluorometer by excitation at 622 nm and emission at 670 nm in a 1 cm path length cuvette. Bandwidth of 5 nm was employed for excitation and emission. Subsequently, increasing concentrations of test peptidomimetics were added to the stabilized cells and the increase of fluorescence on account of the de-quenching of DiSC3(5) dye was measured after every 2 min to obtain the maximal depolarization. Increase in relative fluorescence unit (RFU) was plotted against increasing concentrations of different peptidomimetics or PMB. […] The increase in fluorescence for lipid tagged peptidomimetics was concentration dependent up to 9.9 μg/mL and henceforth, got saturated resulting into plateau like dose response curves. The experiment was repeated twice on two consecutive days and produced similar results.

[9] = tested on: Acinetobacter baumannii (ATCC 19606); test: MIC, serial broth dilution; assay type: cell-based; conditions: MHB, 18 h, 37° C.
Experimental: as §1, §2

[10] = tested on: all the tested strains; test: Antibacterial activity; assay type: cell-based; conditions: series 2
Experimental: as §2

[11] = tested on: S. aureus (ATCC 33591); test: Resistance development study, serial passage at sub MIC; assay type: cell-based, Staphylococcus aureus; conditions: 17 serial passages at sub MIC
Experimental: FIG. 5: Illustration of resistance development study in S. aureus (ATCC 33591) after 17 serial passages with sub MIC of 1c/1d or antibiotic treatment. The fold change in MIC is the ratio of the MIC after 17 passages relative to that MIC observed before first passage.
To determine potential of active peptidomimetics against resistance development, in vitro serial passage method at sub inhibitory concentration was done. Briefly, bacterial suspension (100 μL) from duplicate wells at the concentration of sub-MIC was used to inoculate fresh culture. The culture was grown to obtain approximately 10^5 CFU/mL for the next experiment. These bacterial suspensions were then incubated with desired concentration of antibacterial agents for 18 h to determine new MIC. The same sub culturing protocol was used for next 16 passages and MIC was determined using OD630 nm as described previously in the text [Chem. Biol., 20:1286-1295, 2013.]

[12] = tested on: Staphylococcus species; test: Antibacterial activity; assay type: cell-based
Experimental: as §2

[13] = tested on: Gram-negative bacterial strains; test: Antibacterial activity; assay type: cell-based
Experimental: as §2

| Compound | MIC E. coli. (ATCC 11775) [1] | % H, percentage hemolysis of human RBCs [2] [%] | MIC MRSE (ATCC 51625) [3] [µg/mL] | MIC E. facaelis (ATCC 7080) [4] [µg/mL] | MIC S. epidermidis (ATCC 12228) [5] [µg/mL] | MIC MRSA (ATCC 33591) [6] [µg/mL] | MIC S. aureus (ATCC 29213) [7] [µg/mL] | change in relative fluorescence unit (RFU), membrane depolarization [8] | MIC A. baumannii (ATCC 19606) [9] [µg/mL] | antibacterial activity [10] | increase in MIC after 17 passages [11] [fold] | activity against Staphylococcus species [12] | growth inhibition of Gram-negative bacterial strains [13] |
| --- | --- | --- | --- | --- | --- | --- | --- | --- | --- | --- | --- | --- | --- |
| NCCCNCCCCNCCCNC(=O)C(Cc1c[nH]c2ccccc12)NC(=O)C(Cc1c[nH]c2ccccc12)NC(=O)C=Cc1ccc(O)c(O)c1 (stereo not shown) [1b] | 14.2 | 16 | 0.0071 (≈ 0.00963 µM) | 0.1136 (≈ 0.154 µM) | 3.5 (≈ 4.75 µM) | 7.1 (≈ 9.63 µM) | 0.0035 (≈ 0.00475 µM) | – | – | – | – | – | – |
| CCCCCCCCCCCC(=O)NC(Cc1c[nH]c2ccccc12)C(=O)NC(Cc1c[nH]c2ccccc12)C(=O)NCCCNCCCCNCCCN (stereo not shown) [1e] | 14.2 | 31 | 0.0017 (≈ 0.00225 µM) | 0.0071 (≈ 0.00938 µM) | 1.7 (≈ 2.25 µM) | 3.5 (≈ 4.62 µM) | 0.0017 (≈ 0.00225 µM) | significant changes in RFU | 0.0568 (≈ 0.075 µM) | – | – | – | – |
| CCCCCC=CCC=CCCCCCCCC(=O)NC(Cc1c[nH]c2ccccc12)C(=O)NC(Cc1c[nH]c2ccccc12)C(=O)NCCCNCCCCNCCCN (stereo not shown) [1f] | 28.4 | 30 | 0.0071 (≈ 0.00848 µM) | 0.0284 (≈ 0.0339 µM) | 1.7 (≈ 2.03 µM) | 3.5 (≈ 4.18 µM) | 0.0071 (≈ 0.00848 µM) | significant changes in RFU | – | – | – | – | – |
| NCCCN(CCCCN(CCCN)C(=O)C(N)Cc1c[nH]c2ccccc12)C(=O)C(N)Cc1c[nH]c2ccccc12 (stereo not shown) [2a] | >454.4 | 0 | 0.2272 (≈ 0.395 µM) | – | >454.4 | >227.2 | >0.4544 | only minor increase | – | poor activity | – | – | – |
| NCCCN(CCCCN(CCCNC(=O)C=Cc1ccc(O)c(O)c1)C(=O)C(N)Cc1c[nH]c2ccccc12)C(=O)C(N)Cc1c[nH]c2ccccc12 (stereo not shown) [2b] | >454.4 | 5 | – | – | – | 454.4 (≈ 617 µM) | >0.4544 | – | – | poor activity | – | – | – |
| NCCCN(CCCCN(CCCNC(=O)Cc1ccc(C(F)(F)F)cc1)C(=O)C(N)Cc1c[nH]c2ccccc12)C(=O)C(N)Cc1c[nH]c2ccccc12 (stereo not shown) [2c] | 113.6 | 1 | 0.0142 (≈ 0.0187 µM) | – | 7.1 (≈ 9.33 µM) | 28.4 (≈ 37.3 µM) | 0.0142 (≈ 0.0187 µM) | only marginal changes in RFU | 0.1136 (≈ 0.149 µM) | moderate activity | – | – | – |
| CCCCCCCCCC(=O)NCCCN(CCCCN(CCCN)C(=O)C(N)Cc1c[nH]c2ccccc12)C(=O)C(N)Cc1c[nH]c2ccccc12 (stereo not shown) [2d] | 28.4 | 83 | 0.0017 (≈ 0.00233 µM) | 0.0284 (≈ 0.039 µM) | 0.8 (≈ 1.1 µM) | 1.7 (≈ 2.33 µM) | 0.0008 (≈ 0.0011 µM) | intermediate changes in fluorescence intensity | 0.1136 (≈ 0.156 µM) | – | – | – | – |
| CCCCCCCCCCCC(=O)NCCCN(CCCCN(CCCN)C(=O)C(N)Cc1c[nH]c2ccccc12)C(=O)C(N)Cc1c[nH]c2ccccc12 (stereo not shown) [2e] | 28.4 | 96 | 0.0017 (≈ 0.00225 µM) | 0.0071 (≈ 0.00938 µM) | 0.8 (≈ 1.06 µM) | 1.7 (≈ 2.25 µM) | 0.0008 (≈ 0.00106 µM) | significant changes in RFU | 0.1136 (≈ 0.15 µM) | – | – | – | – |
| CCCCCC=CCC=CCCCCCCCC(=O)NCCCN(CCCCN(CCCN)C(=O)C(N)Cc1c[nH]c2ccccc12)C(=O)C(N)Cc1c[nH]c2ccccc12 (stereo not shown) [2f] | 28.4 | 88 | 0.0017 (≈ 0.00203 µM) | 0.0142 (≈ 0.017 µM) | 0.8 (≈ 0.956 µM) | 3.5 (≈ 4.18 µM) | 0.0008 (≈ 0.000956 µM) | significant changes in RFU | 0.0568 (≈ 0.0678 µM) | – | – | – | – |
| O=C(O)c1cn(C2CC2)c2cc(N3CCNCC3)c(F)cc2c1=O [ciprofloxacin, reference compound] | – | – | – | – | – | – | – | – | – | – | 256 | – | – |
| polymyxin B [PMB, reference compound] | 0.4 | – | 0.0284 | 0.1136 | 7.1 | 28.4 | 0.0142 | – | – | – | – | relatively poor activity | excellent growth inhibition |
